SMILES strings stand for the structures.

In ChEMBL document CHEMBL5291721, “A preclinical secondary pharmacology resource illuminates target-adverse drug reaction associations of marketed drugs” (Nat Commun, 2023) one finds AC50 data, which are given here for 11 compounds.

In experiment [1] the target is Adenosine receptor A2a (Homo sapiens, UniProt P29274).
Experiment [2] has as its target T1, Alpha-2A adrenergic receptor (Homo sapiens, UniProt P08913).
T1 sequence (P08913 whole entry): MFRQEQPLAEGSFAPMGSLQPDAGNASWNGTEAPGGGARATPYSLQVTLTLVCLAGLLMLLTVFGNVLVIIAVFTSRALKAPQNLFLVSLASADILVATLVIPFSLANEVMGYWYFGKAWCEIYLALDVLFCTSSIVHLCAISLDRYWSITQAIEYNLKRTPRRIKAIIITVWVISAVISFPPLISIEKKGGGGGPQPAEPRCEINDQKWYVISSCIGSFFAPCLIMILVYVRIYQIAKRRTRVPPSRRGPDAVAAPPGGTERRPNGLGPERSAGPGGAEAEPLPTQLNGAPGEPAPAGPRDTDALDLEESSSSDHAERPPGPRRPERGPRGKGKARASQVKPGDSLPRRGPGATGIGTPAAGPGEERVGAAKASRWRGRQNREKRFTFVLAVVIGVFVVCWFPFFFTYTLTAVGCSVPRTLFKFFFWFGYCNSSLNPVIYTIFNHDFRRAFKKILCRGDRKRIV
Format: functional, cell-based.

Experiment [3] deals with Vasopressin V1a receptor (Homo sapiens, UniProt P37288).
Experiment [4] has as its target T2, Muscarinic acetylcholine receptor M2 (Homo sapiens, UniProt P08172).
T2 sequence (P08172 whole entry): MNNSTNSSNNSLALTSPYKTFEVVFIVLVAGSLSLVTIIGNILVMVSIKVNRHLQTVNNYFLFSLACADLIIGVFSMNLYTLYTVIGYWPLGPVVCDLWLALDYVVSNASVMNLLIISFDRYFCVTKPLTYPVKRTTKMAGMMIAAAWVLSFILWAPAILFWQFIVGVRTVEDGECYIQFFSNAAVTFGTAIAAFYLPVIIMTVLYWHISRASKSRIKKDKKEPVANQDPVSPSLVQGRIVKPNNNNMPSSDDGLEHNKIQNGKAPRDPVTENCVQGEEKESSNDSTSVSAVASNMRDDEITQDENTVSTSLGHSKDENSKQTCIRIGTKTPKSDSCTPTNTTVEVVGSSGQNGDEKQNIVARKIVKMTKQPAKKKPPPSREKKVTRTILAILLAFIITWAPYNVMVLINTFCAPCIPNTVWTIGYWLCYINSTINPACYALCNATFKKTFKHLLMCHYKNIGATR
The class given is functional, cell-based.

The target of experiment [5] is D(1A) dopamine receptor (Homo sapiens, UniProt P21728). The class given is functional, cell-based.
For experiment [6], the target named is Growth hormone secretagogue receptor type 1 (Homo sapiens, UniProt Q92847).
Experiment [7] concerns the target T3, 5-hydroxytryptamine receptor 1A (Homo sapiens, UniProt P08908).
T3 sequence (P08908 whole entry): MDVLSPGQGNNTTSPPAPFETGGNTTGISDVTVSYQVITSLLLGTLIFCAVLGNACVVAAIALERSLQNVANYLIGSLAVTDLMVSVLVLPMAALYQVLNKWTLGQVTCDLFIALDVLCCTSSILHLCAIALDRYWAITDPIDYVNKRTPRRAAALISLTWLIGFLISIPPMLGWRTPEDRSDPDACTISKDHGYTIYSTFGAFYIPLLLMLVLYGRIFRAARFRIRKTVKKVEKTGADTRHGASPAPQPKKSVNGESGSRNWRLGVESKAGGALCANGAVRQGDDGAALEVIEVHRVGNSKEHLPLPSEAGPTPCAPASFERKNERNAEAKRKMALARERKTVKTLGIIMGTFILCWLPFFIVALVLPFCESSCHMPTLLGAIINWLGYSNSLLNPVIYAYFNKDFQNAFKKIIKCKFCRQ
The class given is functional, cell-based.

The target in experiment [8] is 5-hydroxytryptamine receptor 2B (Homo sapiens, UniProt P41595). Format: functional, cell-based.
The target in experiment [9] is Melanocortin receptor 3 (Homo sapiens, UniProt P41968).
The target of experiment [10] is T4, Neuropeptide Y receptor type 1 (Homo sapiens, UniProt P25929).
T4 sequence (P25929 whole entry): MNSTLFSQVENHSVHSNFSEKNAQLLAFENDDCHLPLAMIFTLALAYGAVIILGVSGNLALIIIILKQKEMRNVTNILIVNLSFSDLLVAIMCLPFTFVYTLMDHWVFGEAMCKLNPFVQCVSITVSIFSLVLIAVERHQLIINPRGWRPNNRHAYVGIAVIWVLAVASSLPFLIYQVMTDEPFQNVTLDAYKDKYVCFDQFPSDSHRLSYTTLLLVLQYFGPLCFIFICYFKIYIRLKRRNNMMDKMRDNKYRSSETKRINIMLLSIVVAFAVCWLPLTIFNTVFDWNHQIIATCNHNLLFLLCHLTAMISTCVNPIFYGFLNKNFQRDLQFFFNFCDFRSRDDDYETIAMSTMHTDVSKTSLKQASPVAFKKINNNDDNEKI

Experiment [11] addresses T5, Amine oxidase [flavin-containing] A (Homo sapiens, UniProt P21397).
T5 sequence (P21397 whole entry): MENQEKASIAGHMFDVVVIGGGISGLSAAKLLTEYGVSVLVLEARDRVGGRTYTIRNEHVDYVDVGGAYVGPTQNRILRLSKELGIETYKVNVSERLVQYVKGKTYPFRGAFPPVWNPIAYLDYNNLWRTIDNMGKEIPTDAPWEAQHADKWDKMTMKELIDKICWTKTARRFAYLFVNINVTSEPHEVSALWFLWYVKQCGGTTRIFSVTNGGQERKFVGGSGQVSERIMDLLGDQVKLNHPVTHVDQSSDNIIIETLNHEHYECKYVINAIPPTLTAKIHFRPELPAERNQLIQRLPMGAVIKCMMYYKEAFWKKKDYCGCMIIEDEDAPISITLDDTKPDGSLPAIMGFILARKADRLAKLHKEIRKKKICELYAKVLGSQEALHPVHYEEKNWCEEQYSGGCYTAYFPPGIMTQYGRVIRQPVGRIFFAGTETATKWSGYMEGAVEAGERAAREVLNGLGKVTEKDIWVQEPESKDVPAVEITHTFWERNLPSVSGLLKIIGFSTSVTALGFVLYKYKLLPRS
The class given is functional.

Experiment [12] concerns the target cGMP-inhibited 3',5'-cyclic phosphodiesterase 3A (Homo sapiens, UniProt Q14432). Format: functional.
Note: assay procedure not described here.

Sequence of Melanocortin receptor 3 (P41968 whole entry): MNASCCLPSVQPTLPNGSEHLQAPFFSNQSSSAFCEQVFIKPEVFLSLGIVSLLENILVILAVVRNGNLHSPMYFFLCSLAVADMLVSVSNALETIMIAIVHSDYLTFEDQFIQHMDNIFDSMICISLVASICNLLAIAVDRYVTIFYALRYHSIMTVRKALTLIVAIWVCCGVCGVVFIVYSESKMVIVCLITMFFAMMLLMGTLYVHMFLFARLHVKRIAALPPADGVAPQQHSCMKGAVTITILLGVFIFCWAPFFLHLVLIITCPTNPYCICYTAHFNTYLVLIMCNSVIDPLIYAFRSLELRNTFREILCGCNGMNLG
Sequence of Growth hormone secretagogue receptor type 1 (Q92847 whole entry): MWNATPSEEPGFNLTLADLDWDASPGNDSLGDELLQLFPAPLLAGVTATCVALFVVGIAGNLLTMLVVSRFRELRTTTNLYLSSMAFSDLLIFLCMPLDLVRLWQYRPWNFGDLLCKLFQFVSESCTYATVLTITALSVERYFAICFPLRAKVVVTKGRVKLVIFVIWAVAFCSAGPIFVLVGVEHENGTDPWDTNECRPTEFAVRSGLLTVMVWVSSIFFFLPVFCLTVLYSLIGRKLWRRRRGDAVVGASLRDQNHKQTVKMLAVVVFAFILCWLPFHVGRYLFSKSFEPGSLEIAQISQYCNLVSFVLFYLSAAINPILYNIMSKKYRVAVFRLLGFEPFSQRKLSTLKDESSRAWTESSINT
Sequence of cGMP-inhibited 3',5'-cyclic phosphodiesterase 3A (Q14432 whole entry): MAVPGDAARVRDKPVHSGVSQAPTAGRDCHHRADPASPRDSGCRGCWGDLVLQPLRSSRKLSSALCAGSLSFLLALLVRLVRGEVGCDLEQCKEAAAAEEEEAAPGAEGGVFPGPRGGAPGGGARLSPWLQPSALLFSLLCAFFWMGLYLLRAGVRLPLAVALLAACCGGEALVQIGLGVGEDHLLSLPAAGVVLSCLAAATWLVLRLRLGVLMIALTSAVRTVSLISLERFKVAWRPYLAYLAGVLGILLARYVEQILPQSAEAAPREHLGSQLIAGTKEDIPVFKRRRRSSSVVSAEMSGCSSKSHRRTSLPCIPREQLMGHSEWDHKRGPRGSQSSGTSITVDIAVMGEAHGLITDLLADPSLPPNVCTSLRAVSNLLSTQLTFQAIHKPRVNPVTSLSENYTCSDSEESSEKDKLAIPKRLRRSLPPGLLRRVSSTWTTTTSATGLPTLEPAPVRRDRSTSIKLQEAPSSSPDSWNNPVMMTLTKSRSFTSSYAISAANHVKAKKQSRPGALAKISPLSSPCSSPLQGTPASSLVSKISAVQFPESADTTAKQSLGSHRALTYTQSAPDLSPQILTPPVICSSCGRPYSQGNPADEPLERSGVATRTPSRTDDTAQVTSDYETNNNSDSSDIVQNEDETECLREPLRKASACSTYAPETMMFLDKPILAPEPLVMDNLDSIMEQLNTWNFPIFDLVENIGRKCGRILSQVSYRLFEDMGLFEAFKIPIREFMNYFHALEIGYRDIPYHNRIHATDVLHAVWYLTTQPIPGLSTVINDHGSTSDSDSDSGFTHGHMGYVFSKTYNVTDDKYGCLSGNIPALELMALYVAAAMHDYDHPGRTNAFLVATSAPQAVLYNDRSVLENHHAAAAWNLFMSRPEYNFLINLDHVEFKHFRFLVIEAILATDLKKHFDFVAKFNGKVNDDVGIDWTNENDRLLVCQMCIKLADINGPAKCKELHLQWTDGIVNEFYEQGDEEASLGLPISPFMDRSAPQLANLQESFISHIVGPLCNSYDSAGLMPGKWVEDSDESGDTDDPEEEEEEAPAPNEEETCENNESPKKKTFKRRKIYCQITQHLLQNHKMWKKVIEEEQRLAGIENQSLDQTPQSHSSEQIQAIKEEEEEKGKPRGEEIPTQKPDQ
Sequence of 5-hydroxytryptamine receptor 2B (P41595 whole entry): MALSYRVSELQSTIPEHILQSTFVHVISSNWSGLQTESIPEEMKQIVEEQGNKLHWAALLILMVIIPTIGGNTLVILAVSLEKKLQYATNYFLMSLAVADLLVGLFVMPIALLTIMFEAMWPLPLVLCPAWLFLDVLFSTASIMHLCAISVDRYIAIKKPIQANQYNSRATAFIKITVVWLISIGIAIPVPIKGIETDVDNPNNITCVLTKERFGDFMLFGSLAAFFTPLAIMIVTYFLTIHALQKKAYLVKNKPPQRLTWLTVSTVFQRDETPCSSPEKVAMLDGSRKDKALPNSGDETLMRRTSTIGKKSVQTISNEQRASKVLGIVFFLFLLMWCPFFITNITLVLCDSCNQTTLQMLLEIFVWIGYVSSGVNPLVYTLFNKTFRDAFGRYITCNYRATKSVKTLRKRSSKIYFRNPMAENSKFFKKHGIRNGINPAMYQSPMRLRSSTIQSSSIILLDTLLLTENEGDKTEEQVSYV
Sequence of Adenosine receptor A2a (P29274 whole entry): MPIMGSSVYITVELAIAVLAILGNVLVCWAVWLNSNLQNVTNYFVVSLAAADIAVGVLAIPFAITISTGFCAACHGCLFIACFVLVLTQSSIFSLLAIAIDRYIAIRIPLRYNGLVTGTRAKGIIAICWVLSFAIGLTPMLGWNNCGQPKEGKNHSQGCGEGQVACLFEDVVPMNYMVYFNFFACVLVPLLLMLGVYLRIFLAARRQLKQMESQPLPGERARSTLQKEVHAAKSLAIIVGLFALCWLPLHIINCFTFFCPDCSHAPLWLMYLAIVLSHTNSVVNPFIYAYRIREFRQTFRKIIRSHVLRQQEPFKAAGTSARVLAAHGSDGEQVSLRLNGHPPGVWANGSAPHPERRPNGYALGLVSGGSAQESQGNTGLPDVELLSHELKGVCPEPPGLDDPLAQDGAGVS
Sequence of D(1A) dopamine receptor (P21728 whole entry): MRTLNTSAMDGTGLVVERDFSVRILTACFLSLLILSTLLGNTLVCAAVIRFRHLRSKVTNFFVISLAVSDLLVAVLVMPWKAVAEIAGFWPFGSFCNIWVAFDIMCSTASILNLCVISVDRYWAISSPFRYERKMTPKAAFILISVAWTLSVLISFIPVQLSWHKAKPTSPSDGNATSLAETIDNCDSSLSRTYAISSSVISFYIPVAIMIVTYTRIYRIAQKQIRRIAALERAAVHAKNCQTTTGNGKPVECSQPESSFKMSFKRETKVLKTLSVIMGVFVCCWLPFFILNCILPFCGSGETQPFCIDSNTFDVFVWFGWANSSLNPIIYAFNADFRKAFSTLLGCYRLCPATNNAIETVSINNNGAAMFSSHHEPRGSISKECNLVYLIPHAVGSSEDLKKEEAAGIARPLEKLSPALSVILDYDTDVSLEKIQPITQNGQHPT
Sequence of Vasopressin V1a receptor (P37288 whole entry): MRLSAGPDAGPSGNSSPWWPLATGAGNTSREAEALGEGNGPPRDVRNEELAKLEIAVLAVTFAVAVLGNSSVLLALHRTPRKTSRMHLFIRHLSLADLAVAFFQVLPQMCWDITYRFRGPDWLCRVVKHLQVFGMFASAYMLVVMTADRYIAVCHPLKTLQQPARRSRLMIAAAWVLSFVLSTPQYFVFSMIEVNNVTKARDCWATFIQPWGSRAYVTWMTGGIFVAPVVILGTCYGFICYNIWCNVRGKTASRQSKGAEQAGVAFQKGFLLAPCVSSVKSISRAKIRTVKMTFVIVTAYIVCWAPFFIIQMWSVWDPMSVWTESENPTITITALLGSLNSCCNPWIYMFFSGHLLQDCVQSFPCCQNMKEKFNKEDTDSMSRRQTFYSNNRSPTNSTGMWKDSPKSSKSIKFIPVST

The AC50 is the midpoint of the concentration-response curve, whichever way the signal moves. Take `CCN1C(=O)NC(c2ccccc2)C1=O` (stereo not given) [ETHOTOIN]: the AC50 in experiment [1], in experiment [2], in [3], in experiment [4], in experiment [5] and in experiment [6] was over 30 µM in each case. In addition, the AC50 in [7], in experiment [8], in experiment [9], in experiment [10], in experiment [11] and in experiment [12] was over 30 µM each time.

Regarding `CCCCC[C@H](O)CC[C@@H]1[C@H]2Cc3cccc(OCC(=O)O)c3C[C@H]2C[C@H]1O` [TREPROSTINIL], the AC50 in [1], in experiment [2], in experiment [3], in experiment [4], in experiment [5] and in [6] was over 30 µM each time. The AC50 in [7], in [8], in experiment [9], in [10], in experiment [11] and in experiment [12] was over 30 µM throughout.

`CS(=O)(=O)NC(=O)CCC/C=C\C[C@H]1C(=O)C[C@@H](O)[C@@H]1/C=C/[C@@H](O)COc1ccccc1` [SULPROSTONE]: the half-maximal activity concentration (AC50) in experiment [1], in [2], in [3], in experiment [4], in [5] and in [6] was over 30 µM each time. The AC50 in experiment [7], in experiment [8], in experiment [9], in [10], in experiment [11] and in [12] was over 30 µM each time.

In the case of `CC(=O)Oc1cccc2c1C(=O)c1c(OC(C)=O)cc(C(=O)O)cc1C2=O` [DIACEREIN], the AC50 in experiment [1] is 24 µM; in experiment [2] it was 12 µM; in experiment [3], 25 µM; in experiment [4], 12 µM; in experiment [5], over 30 µM; in experiment [6] it was over 30 µM. The AC50 is 18 µM in experiment [7]; over 10 µM in experiment [8]; over 30 µM in experiment [9]; over 30 µM in experiment [10]; over 30 µM in [11]; over 30 µM in experiment [12].

Consider `NS(=O)(=O)c1ccc(N2CCCCS2(=O)=O)cc1`, for which the AC50 in experiment [1], in [2], in [3], in experiment [4], in [5] and in [6] was over 30 µM in each case. Moreover, the AC50 in experiment [7], in [8], in experiment [9], in [10], in [11] and in experiment [12] was over 30 µM throughout.

Regarding `CCCO[C@H]1[C@@H]([C@@H](COCc2ccc(Cl)cc2)OCc2ccc(Cl)cc2)OC(OCC)[C@@H]1O` (stereo not given in full) [CLOBENOSIDE], the AC50 in experiment [1], in experiment [2], in experiment [3], in experiment [4], in experiment [5] and in [6] was over 30 µM throughout. Further, the concentration at half-maximal activity (AC50) in experiment [7], in experiment [8], in [9], in experiment [10], in experiment [11] and in experiment [12] was over 30 µM in each case.

Turning to `CCCCOC(=O)c1ccc(N)cc1` [BUTAMBEN], the AC50 in experiment [1], in experiment [2], in experiment [4], in experiment [5], in experiment [6] and in [7] was over 30 µM each time. Besides, the AC50 in experiment [8], in [9], in experiment [10], in experiment [11] and in [12] was over 30 µM throughout.

As for `CNCCc1ccccn1` [BETAHISTINE], the AC50 in experiment [1], in experiment [2], in experiment [4], in [5], in experiment [6] and in experiment [7] was over 30 µM in each case. Also, the AC50 in experiment [8], in experiment [9], in experiment [10], in [11] and in experiment [12] was over 30 µM throughout.

Turning to `CCc1ccc(C(=O)C(C)CN2CCCCC2)cc1` (stereo not given) [EPERISONE], the AC50 in experiment [1], in experiment [2], in experiment [4], in experiment [5], in experiment [6] and in experiment [7] was over 30 µM each time. Moreover, the AC50 in [8], in experiment [9], in experiment [10], in experiment [11] and in [12] was over 30 µM throughout.

Turning to `COc1nc(C)nc(Cl)c1N=C1NCCN1` [MOXONIDINE], the AC50 in experiment [1] is over 30 µM; in [4], over 30 µM; in [5], over 30 µM; in experiment [6], over 30 µM; in experiment [7], 6.5 µM; in [8], over 30 µM. The AC50 in [9], in experiment [10], in [11] and in experiment [12] was over 30 µM each time.

Turning to `CC(=O)OCC(=O)[C@@]1(O)CC[C@H]2[C@@H]3CCC4=CC(=O)CC[C@]4(C)[C@@]3(F)[C@@H](O)C[C@@]21C` [FLUDROCORTISONE ACETATE], the AC50 in experiment [1], in experiment [2], in experiment [4], in experiment [5], in [6] and in [7] was over 30 µM throughout. Moreover, the AC50 in experiment [8], in experiment [9], in [10] and in experiment [12] was over 30 µM each time.
